Assay: Solubility of co-developers in coating solvents (Example 5)
Format: physicochemical
Procedure: Solubility of Co-developers: In order for the co-developer to perform effectively, some quantity of the co-developer must be soluble in the coating solvent for the emulsion layer or topcoat layer. 2-Butanone MEK) and methanol are typical solvents for these layers. Solubility will vary depending on the structure of the co-developer, the composition of the layer containing the co-developer, and the solvents employed.
The photothermographic elements of this invention typically require from 10 mg to 100 mg of co-developer in 40 g of photothermographic emulsion in 25 g 2-butanone in order to achieve high contrast. The photothermographic emulsions are held at 50° F. (10° C.). As this is below room temperature, the solubility is below that of the co-developer at room temperature.
The solubility of co-developer CI-03 in 25 g of 2-butanone (MEK) and in 25 g of methanol was determined.

O=C1NC(=O)C(=CO)C(=O)N1 [CI-03, 5-(Hydroxymethylone)-2,4,5(1H3H,5H)-pyrimdine-trione]
Solubility in MEK (2.5 mg in 25 g 2-butanone, room temperature): Soluble at room temperature. | Solubility in MEK (5.0 mg in 25 g 2-butanone, 90° F. (32° C.)): Soluble at 90° F. (32° C.). | Solubility in MEK (5.0 mg in 25 g 2-butanone, room temperature): Insoluble at room temperature. | Solubility in MeOH (5 mg in 25 g methanol, room temperature): Soluble at room temperature. | Solubility in MEK (12.5 mg in 25 g 2-butanone, 90° F. (32° C.)): Insoluble at 90° F. (32° C.). | Solubility in MeOH (12.5 mg in 25 g methanol, 90° F. (32° C.)): Soluble at 90° F. (32° C.). | Solubility in MeOH (12.5 mg in 25 g methanol, room temperature): Insoluble at room temperature. | Solubility in MEK (25 mg in 25 g 2-butanone, 90° F. (32° C.)): Insoluble at 90° F. (32° C.). | Solubility in MeOH (25 mg in 25 g methanol, 90° F. (32° C.)): Soluble at 90° F. (32° C.). | Solubility in MeOH (25 mg in 25 g methanol, room temperature): Insoluble at room temperature. | Solubility in organic solvents (Example 1, sample 1-28): Compound CI-03 was insoluble in organic solvents.

— patent US6387605B1, “Co-developers for black-and-white photothermographic elements” (Eastman Kodak Company, priority 1999, dated 2002)
